Assay results as given in BindingDB's records for doi:10.7270/Q29885F3 (Nmmlsc, 2009).

Molecular target: Ras-related protein Rab-7a (Canis lupus familiaris, UniProt P18067)
Experiment: Rab7 GTP binding inhibitors, analog potency, SAR follow-up, biochemical, oxadiazole analogs, multiplex bead flow cytometry (AID 2031)
Conditions: inactive by the depositor's call

Sequence of Ras-related protein Rab-7a (P18067 whole entry): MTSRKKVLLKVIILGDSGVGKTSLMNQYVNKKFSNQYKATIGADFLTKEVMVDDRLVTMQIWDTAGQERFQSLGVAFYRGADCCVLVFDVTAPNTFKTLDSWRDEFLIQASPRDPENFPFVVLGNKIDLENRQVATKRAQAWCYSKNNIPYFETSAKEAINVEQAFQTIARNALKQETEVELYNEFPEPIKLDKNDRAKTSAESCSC

| Ki [nM] | SMILES |
| --- | --- |
| 100 | COc1ccc(-c2noc(CCC(=O)N3CCN(c4cccc(C)c4C)CC3)n2)cc1 [1-[4-(2,3-dimethylphenyl)-1-piperazinyl]-3-[3-(4-methoxyphenyl)-1,2,4-oxadiazol-5-yl]-1-propanone] |
| 100 | Cc1ccc(C)c(N2CCN(C(=O)CCc3nc(-c4ccc(Br)cc4)no3)CC2)c1 [UNM-0000306072] |
